Legend:
[1] = molecular target: T1, TP0037 (TpD-LDH; rTP0037) (Treponema pallidum, UniProt O83080); assay: colorimetric NADH-formation kit assay (A575/A605); type: biochemical; details: co-substrate NAD+, 37°C, 30 min
T1 construct: gene ldhD; full-length, residues 1-331, in pProEX-HTb (vector-derived tag); monomer 39,190 g/mol, homodimer in solution

[2] = molecular target: the molecule itself; assay: static light scattering; Dynapro Nanostar, 25°C, storage buffer (20 mM HEPES pH 7.5, 100 mM NaCl, 2 mM BOG), 1.54 mg/ml, three technical replicates; DLS monitored simultaneously

C[C@@H](O)C(=O)O [D-lactate]
colorimetric NADH-formation kit assay (A575/A605) [1]: monitor the amount of NADH formation in the presence of NAD^+, D-lactate, and the enzyme

C[C@H](O)C(=O)O [L-lactate]
colorimetric NADH-formation kit assay (A575/A605) ([1]; very weak substrate): only about one-thousandth of the activity was observed when using L-lactate as the substrate

B1: TP0037, D-lactate dehydrogenase of Treponema pallidum (enzyme, UniProt O83080 1-331, looked up)
chain: MRCVVFNLREEEAPYVEKWKQSHPGVVVDTYEEPLTAKNKELLKGYEGLVVMQFLAMEDEVYDYMGACKLKVLSTRTAGFDMYNATLLKKHGIRLTNVPSYSPNAIGEYALAAALQLTRHAREIETFVRKRDFRWQKPILSKELRCSRVGILGTGRIGQAAARLFKGVGAQVVGFDPYPNDAAKEWLTYVSMDELLSTSDVISLHMPATKDSHHLINAKTIAQMKDGVYLVNTARGAVIDSQALLDSLDKGKIAGAALDAYEFEGPYIPKDNGNNPITDTVYARLVAHERIIYTPHIAFYTETAIENMVFNSLDACTTVLRGEPCAAEIKL
notes: TP0037 (D-lactate dehydrogenase), Treponema pallidum, amino acid residues 1 to 331, amplified from genomic DNA; called full-length in the results; also called rTP0037; TpD-LDH; source: E. coli BL21(DE3), purified to apparent homogeneity
stoichiometry N [2]: 2

Source: publication PMC7512555 (mBio, 2020)
